Where two headings read alike, the source gives them in different places.
Legend:
Assay type in all cases: biochemical
Oxford sialidase [1] = test: Turner luminometer assay, incubation with Oxford sialidase at pH 5.5, then AMP pH 10 injection (Experiments 1-3)
Protocol: Next, 0.2 units of Oxford Enzyme were diluted with 400 microliters of […]. 200 microliters of the enzyme (0.1 units) were then treated with 10 microliters of the dioxetane stock and incubated at 37° C. for 15 minutes. The solution was then placed in a Turner luminometer. Light was detected at a constant 80 RLU at a pH of 5.5. All Turner readings were calibrated to 31.5° C.
5 microliters of the dioxetane stock prepared in Experiment 1 was added to 0.05 units of Oxford sialidase in 200 microliters of the pH 5.5 buffer. The solution (approximately a 110 micromolar substrate) was incubated at 37° C. for 15 minutes. The solution was then placed in a Turner luminometer, and steady light emission at about 55 RLU was noted (see FIG. 6). Next, 400 microliters of AMP pH 10 buffer was injected to produce an off-scale light spike (i.e., greater than 10,000 RLU).
Experiment 2 was repeated with a 110 micromolar substrate in the presence of 0.025 units of the enzyme. FIG. 7 illustrates that at a pH of 5.5, the light level obtained (56 RLU) was similar to that obtained in Experiment 2. […] Next, an additional 400 microliters of the AMP pH 10 buffer was added, which produced a light peak at 8860 RLU and similar decay kinetics as in Experiment 2.

Oxford sialidase [2] = test: One step chemiluminescence at pH 7.7 after adding Oxford sialidase (Experiment 6); conditions: pH 7.7, 0.25 units sialidase
Protocol: After incubation, 0.25 units of Oxford sialidase in 50 microliters of 50 micromolar acetate buffer was added. Chemiluminescence was spontaneously produced, rising to a maximum of 1380 RLU at 3.25 minutes (see FIG. 10).

sialidase [3] = test system: sialidase
From the text: FIG. 12A is a graph showing chemiluminescence (RLU) as a function of sialidase dilution using a methylumbelliferyl-N-acetylneuraminic acid salt fluorescent substrate in a 0.05 M sodium acetate/0.1M NaCl buffer.
FIG. 12B is a graph showing signal to noise ratio (S/N) as a function of sialidase dilution for a methylumbelliferyl-N-acetylneuraminic acid salt fluorescent substrate in a 0.05 M sodium acetate/0.1M NaCl buffer.
The results and conditions are summarized in Table B and depicted graphically in FIGS. 12A and 12B.

sialidase [4] = test system: sialidase; remark: listed apart in the source

COC1(c2ccc(Cl)c(O[C@]3(C(=O)[O-])C[C@H](O)[C@@H](NC(C)=O)[C@H]([C@H](O)[C@H](O)CO)O3)c2)OOC12C1CC3CC2CC(Cl)(C3)C1.[Na+] (stereo partly drawn) [dioxetane 489-102] was tested, and the “light peak after AMP pH 10 buffer” value (Oxford sialidase [1]; 0.025 units enzyme) was 8860 RLU, the “light level at pH 5.5” value (Oxford sialidase [1]; 0.025 units enzyme, 110 micromolar substrate) was 56 RLU and the “light emission relative to no enzyme noise at pH 5.5” value (Oxford sialidase [1]; 0.05 units sialidase) was “about 275 times”. For the same compound, the “light spike after AMP pH 10 buffer” value (Oxford sialidase [1]; 0.05 units sialidase) was “greater than 10,000 RLU”, the “steady light emission at pH 5.5” value (Oxford sialidase [1]; 0.05 units sialidase, approximately 110 micromolar substrate, 37° C. 15 minutes) was “about 55 RLU” and the “correlation of light emission at pH 5.5 with enzyme concentration” value (Oxford sialidase [1]; 0.05 versus 0.025 units) was “did not correlate with enzyme concentration”. The “peak light emission after 0.1 AMP pH 10 injection” value (Oxford sialidase [1]; 0.1 units enzyme) was “greater than 10,000 RLU”, the “light detected at pH 5.5” value (Oxford sialidase [1]; 0.1 units enzyme, 10 microliters stock, 37° C. 15 minutes) was 80 RLU and the “substrate consumption during the incubation time” value (Oxford sialidase [1]; 0.1 units enzyme, 37° C. 15 minutes) was “near complete substrate consumption”. The “time of maximum chemiluminescence” value (Oxford sialidase [2]) was 3.25 min and the maximum chemiluminescence (Oxford sialidase [2]; 31.5° C.) was 1380 RLU.

With “Methylumbelliferyl-N-acetylneuraminic acid salt” the RLU (sialidase [3]) was 75078 RLU, the S/N (sialidase [3]) was 2.74 and the RLU (sialidase [3]; dilution 1000) was 4209078 RLU. For the same compound, the S/N (sialidase [3]; dilution 1000) was 153.62, the RLU (sialidase [3]; dilution 5000) was 1171002 RLU and the S/N (sialidase [3]; dilution 5000) was 42.74. It also gave an RLU (sialidase [3]; dilution 25000) of 263218 RLU, a S/N (sialidase [3]; dilution 25000) of 9.61 and an RLU (sialidase [3]; dilution 625000) of 32200 RLU. For the same compound, the S/N (sialidase [3]; dilution 625000) was 1.18, the RLU (sialidase [3]; dilution 3125000) was 27538 RLU and the S/N (sialidase [3]; dilution 3125000) was 1.01. The RLU (sialidase [3]; dilution 15625000) was 28231 RLU, the S/N (sialidase [3]; dilution 15625000) was 0.96 and the “sensitivity compared with neuraminidase-Star substrate” value (sialidase [4]) was “inferior sensitivity”. It also gave a signal-to-noise ratio (sialidase [4]; dilution of 1:40,000) of 1.79.
